In US9693992B2 (MannKind Corporation, priority 2010, dated 2017) one finds EC50 data, which are given here for 73 molecules.

The target of the assay is IRE-1α (Homo sapiens (Human), UniProt O75460). Description: Cellular EC50: endogenous XBP-1 splicing in myeloma cells (MM.1s, DTT stress, RT-PCR). It counts as cell-based. The note with it: average cellular EC50, XBP-1 splicing in myeloma cells. The method, then: Human myeloma MM.1s cells are incubated with a compound for 1.25 hours before stressing the cells with 2 mM dithiothreitol (DTT). After an additional 45 minutes (2 hours total) with compound and DTT, the cells are harvested with TRIZOL® (a mono-phasic solution of phenol and guanidine isothiocyanate), and total RNA is prepared as directed by the manufacturer (Invitrogen). Human XBP-1 is amplified by RT-PCR with the following primers, which flank the 26 base unconventional intron excised by IRE-1α:
RT-PCR of unstressed (U) cells then generates the upper band. When cells are stressed (S) with the endoplasmic reticulum (ER) stressing agent DTT, IRE-1α is activated due to accumulating unfolded protein and the resulting RT-PCR product is 26 base pairs shorter.
Compounds which pass specificity assays are assayed for cellular EC50 using endogenous XBP-1 splicing in myeloma cells. XBP-1 is regulated through the excision of a 26 nucleotide intron from the XBP-1 mRNA by the highly specific endoribonuclease activity of IRE-1α. […] This splicing event is used to measure IRE-1α activity on XBP-1 mRNA in cells and tissues.
Briefly, compounds are incubated in the presence or absence of an ER stress agent (e.g., DTT), and the ratio of XBP-1u (unspliced) to XBP-1s (spliced) is quantified by RT-PCR. The ED50 is determined as the 50% XBP-1s to total XPB-1 levels.

Chain of IRE-1α (O75460 19-977): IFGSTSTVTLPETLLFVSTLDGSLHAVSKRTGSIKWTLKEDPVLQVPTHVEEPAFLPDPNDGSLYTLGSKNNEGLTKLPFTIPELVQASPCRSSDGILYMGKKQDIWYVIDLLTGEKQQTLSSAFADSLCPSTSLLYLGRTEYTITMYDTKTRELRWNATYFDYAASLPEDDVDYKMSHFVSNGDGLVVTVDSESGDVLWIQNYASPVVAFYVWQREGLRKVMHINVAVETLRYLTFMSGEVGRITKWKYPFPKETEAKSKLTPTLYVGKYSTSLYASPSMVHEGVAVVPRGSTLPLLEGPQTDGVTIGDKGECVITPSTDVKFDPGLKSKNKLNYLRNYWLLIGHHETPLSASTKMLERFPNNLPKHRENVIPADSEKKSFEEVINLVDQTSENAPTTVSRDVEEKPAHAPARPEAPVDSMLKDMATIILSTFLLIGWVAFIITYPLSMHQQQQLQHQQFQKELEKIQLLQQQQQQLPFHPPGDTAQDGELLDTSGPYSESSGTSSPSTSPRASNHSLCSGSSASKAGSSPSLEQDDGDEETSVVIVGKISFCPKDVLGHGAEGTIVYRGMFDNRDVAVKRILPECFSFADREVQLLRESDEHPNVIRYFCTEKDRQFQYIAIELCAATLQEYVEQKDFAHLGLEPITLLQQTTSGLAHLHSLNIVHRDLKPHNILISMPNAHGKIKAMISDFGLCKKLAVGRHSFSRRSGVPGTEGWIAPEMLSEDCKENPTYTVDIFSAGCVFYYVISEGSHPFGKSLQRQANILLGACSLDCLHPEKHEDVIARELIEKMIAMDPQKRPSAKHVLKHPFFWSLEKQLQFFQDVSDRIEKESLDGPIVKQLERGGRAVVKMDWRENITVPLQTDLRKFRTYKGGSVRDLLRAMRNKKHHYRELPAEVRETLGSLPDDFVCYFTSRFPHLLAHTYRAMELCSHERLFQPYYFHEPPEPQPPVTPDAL

The term EC50 denotes the concentration giving half of the maximal effect. `COc1cc2c(CN3CCOCC3)c(C)c(=O)oc2c(C=O)c1O` [Example 132] had an EC50 of less than 10 µM. The same measure for `COc1cc2c(CN(C)C)c(C)c(=O)oc2c(C=O)c1O` [Example 133]: less than 10 µM; for `COc1cc(O)c(C=O)c2oc(=O)c(C)c(CN3CCOCC3)c12` [Example 134]: less than 10 µM.

Regarding `COc1cc(O)c(C=O)c2oc(=O)c(C)c(CN(C)C)c12` [Example 135], the EC50 is less than 10 µM.

For the molecule `COCc1cc(=O)oc2c(C=O)c(O)c(OC)cc12` [Example 136], the concentration for a half-maximal effect (EC50) was less than 10 µM. The same measure for `COCc1c(C)c(=O)oc2c(C=O)c(O)ccc12` [Example 137]: less than 10 µM. For the molecule `COCCNC(=O)CCc1c(COC)c2cc(OC)c(O)c(C=O)c2oc1=O` [Example 138], the EC50 is more than 10 µM. As for `COCc1c(CCC(=O)N2CCOCC2)c(=O)oc2c(C=O)c(O)c(OC)cc12` [Example 139], the EC50 is less than 10 µM. As for `COCc1c(CCC(=O)NCCN2CCOCC2)c(=O)oc2c(C=O)c(O)c(OC)cc12` [Example 140], the EC50 was more than 10 µM. With `COc1cc2c(C)c(-c3ccc(C(=O)N4CCN(C)CC4)s3)c(=O)oc2c(C=O)c1O` [Example 141] the figure was less than 10 µM. The same measure for `COc1cc2c(C)c(-c3ccc(C(=O)N4CCOCC4)s3)c(=O)oc2c(C=O)c1O` [Example 142]: less than 10 µM; for `COc1cc2c(C)c(-c3ccc(C(=O)NCCN4CCOCC4)s3)c(=O)oc2c(C=O)c1O` [Example 143]: less than 10 µM; for `CCOC(=O)CCc1c(C)c2cc(N(C)C(C)=O)c(O)c(C=O)c2oc1=O` [Example 144]: more than 10 µM.

In turn, `COCCOCCc1c(C)c2c(OC)cc(O)c(C=O)c2oc1=O` [Example 145] displayed an EC50 of less than 10 µM. In the case of `COc1cc2c(C(C)C)cc(=O)oc2c(C=O)c1O` [Example 146], the EC50 was less than 10 µM. As to `COc1cc2c(C)c(CCC(=O)NCCO)c(=O)oc2c(C=O)c1O` [Example 147], the EC50 was more than 10 µM. The same measure for `COc1cc2c(C)c(CC(=O)NCCO)c(=O)oc2c(C=O)c1O` [Example 148]: more than 10 µM; for `COCOCCNC(=O)Cc1c(C)c2cc(OC)c(O)c(C=O)c2oc1=O` [Example 149]: less than 10 µM; for `COCCNC(=O)c1ccc(-c2c(C)c3cc(Cl)c(O)c(C=O)c3oc2=O)cc1` [Example 150]: more than 10 µM. The molecule `Cc1c(-c2ccc(C(=O)NCCN3CCOCC3)cc2)c(=O)oc2c(C=O)c(O)c(Cl)cc12` [Example 151] returned an EC50 of more than 10 µM. The same measure for `COCCNC(=O)CCc1c(C)c2c(OCCOC)cc(O)c(C=O)c2oc1=O` [Example 152]: less than 10 µM; for `COCCOc1cc(O)c(C=O)c2oc(=O)c(CCC(=O)N3CCOCC3)c(C)c12` [Example 153]: less than 10 µM. With `COCCOc1cc(O)c(C=O)c2oc(=O)c(CCC(=O)N3CCN(C)CC3)c(C)c12` [Example 154] the figure was less than 10 µM; with `CCNC(=O)CCc1c(C)c2c(OCCOC)cc(O)c(C=O)c2oc1=O` [Example 155], less than 10 µM; with `COCCOc1cc(O)c(C=O)c2oc(=O)c(CCC(=O)NCCN3CCOCC3)c(C)c12` [Example 156], more than 10 µM. The same measure for `COCCOc1cc(O)c(C=O)c2oc(=O)c(CCC(=O)NCCN(C)C)c(C)c12` [Example 157]: more than 10 µM; for `CCOC(=O)Cc1c(C)c2c(OCCOC)cc(O)c(C=O)c2oc1=O` [Example 158]: less than 10 µM. Regarding `COCCNC(=O)Cc1c(C)c2c(OCCOC)cc(O)c(C=O)c2oc1=O` [Example 159], the EC50 is less than 10 µM. `COCCOc1cc(O)c(C=O)c2oc(=O)c(CC(=O)N3CCOCC3)c(C)c12` [Example 160] displayed an EC50 of less than 10 µM. With `COCCOc1cc(O)c(C=O)c2oc(=O)c(CC(=O)N3CCN(C)CC3)c(C)c12` [Example 161] the figure was less than 10 µM. Take `CCNC(=O)Cc1c(C)c2c(OCCOC)cc(O)c(C=O)c2oc1=O` [Example 162]: the concentration for a half-maximal effect (EC50) is less than 10 µM.

In turn, `COCCOc1cc(O)c(C=O)c2oc(=O)c(CC(=O)NCCN3CCOCC3)c(C)c12` [Example 163] registered an EC50 of less than 10 µM. With `COCCOc1cc(O)c(C=O)c2oc(=O)c(CC(=O)NCCN(C)C)c(C)c12` [Example 164] the figure was more than 10 µM; with `COCCOc1cc(O)c(C=O)c2oc(=O)c(C)c(C)c12` [Example 165], less than 10 µM. The same measure for `COCCNC(=O)Cc1c(C)c2cc(OC)c(O)c(C=O)c2oc1=O` [Example 166]: less than 10 µM; for `COc1cc2c(C)c(CC(=O)N3CCN(C)CC3)c(=O)oc2c(C=O)c1O` [Example 168]: less than 10 µM. The same measure for `CCNC(=O)Cc1c(C)c2cc(OC)c(O)c(C=O)c2oc1=O` [Example 169]: less than 10 µM.

Molecule `COc1cc2c(C)c(CC(=O)NCCN(C)C)c(=O)oc2c(C=O)c1O` [Example 170] had a half-maximal effective concentration (EC50) of less than 10 µM. With `COCCNC(=O)CCc1c(C)c2cc(OC)c(O)c(C=O)c2oc1=O` [Example 171] the figure was less than 10 µM. The same measure for `COc1cc2c(C)c(CCC(=O)N3CCOCC3)c(=O)oc2c(C=O)c1O` [Example 172]: less than 10 µM; for `COc1cc2c(C)c(CCC(=O)N3CCN(C)CC3)c(=O)oc2c(C=O)c1O` [Example 173]: less than 10 µM; for `CCNC(=O)CCc1c(C)c2cc(OC)c(O)c(C=O)c2oc1=O` [Example 174]: less than 10 µM. With `COc1cc2c(C)c(CCC(=O)NCCN(C)C)c(=O)oc2c(C=O)c1O` [Example 175] the figure was more than 10 µM; with `COCCNC(=O)Cc1c(C)c2c(OC)cc(O)c(C=O)c2oc1=O` [Example 176], less than 10 µM. `COc1cc(O)c(C=O)c2oc(=O)c(CC(=O)N3CCOCC3)c(C)c12` [Example 177] returned an EC50 of less than 10 µM. With `COc1cc(O)c(C=O)c2oc(=O)c(CC(=O)N3CCN(C)CC3)c(C)c12` [Example 178] the figure was less than 10 µM. `COc1cc(O)c(C=O)c2oc(=O)c(CC(=O)NCCN3CCOCC3)c(C)c12` [Example 179]: the EC50 is less than 10 µM. As to `COc1cc(O)c(C=O)c2oc(=O)c(CC(=O)NCCN(C)C)c(C)c12` [Example 180], the half-maximal effective concentration (EC50) was less than 10 µM. The same measure for `COCCOc1cc2c(C)c(CCC(=O)N3CCOCC3)c(=O)oc2c(C=O)c1O` [Example 181]: less than 10 µM. The same measure for `COCCOc1cc2c(C)c(CCC(=O)N3CCN(C)CC3)c(=O)oc2c(C=O)c1O` [Example 182]: less than 10 µM; for `CCNC(=O)CCc1c(C)c2cc(OCCOC)c(O)c(C=O)c2oc1=O` [Example 183]: less than 10 µM. The same measure for `COCCNC(=O)CCc1c(C)c2cc(OCCOC)c(O)c(C=O)c2oc1=O` [Example 184]: less than 10 µM; for `COCCOc1cc2c(C)c(CCC(=O)NCCN(C)C)c(=O)oc2c(C=O)c1O` [Example 185]: more than 10 µM. As to `COCCOc1cc2c(C)c(CCC(=O)NCCN3CCOCC3)c(=O)oc2c(C=O)c1O` [Example 186], the EC50 is more than 10 µM.

For the molecule `COCCOc1cc2c(C)c(CC(=O)NCCN3CCOCC3)c(=O)oc2c(C=O)c1O` [Example 187], the EC50 was less than 10 µM.

The molecule `COCCOc1cc2c(C)c(CC(=O)N3CCOCC3)c(=O)oc2c(C=O)c1O` [Example 188] displayed a 50% effective concentration (EC50) of less than 10 µM.

Molecule `COCCOc1cc2c(C)c(CC(=O)N3CCN(C)CC3)c(=O)oc2c(C=O)c1O` [Example 189] displayed an EC50 of less than 10 µM. On to `COCCNC(=O)Cc1c(C)c2cc(OCCOC)c(O)c(C=O)c2oc1=O` [Example 190], for which the EC50 was less than 10 µM.

`CCNC(=O)Cc1c(C)c2cc(OCCOC)c(O)c(C=O)c2oc1=O` [Example 191] returned a concentration giving a half-maximal response (EC50) of less than 10 µM. With `COc1cc(O)c(C=O)c2oc(=O)c(CCC(=O)N3CCOCC3)c(C)c12` [Example 192] the figure was less than 10 µM; with `COc1cc(O)c(C=O)c2oc(=O)c(CCC(=O)N3CCN(C)CC3)c(C)c12` [Example 193], less than 10 µM; with `COCCNC(=O)CCc1c(C)c2c(OC)cc(O)c(C=O)c2oc1=O` [Example 194], less than 10 µM.

In turn, `COc1cc(O)c(C=O)c2oc(=O)c(CCC(=O)NCCN(C)C)c(C)c12` [Example 195] came in with a concentration for a half-maximal effect (EC50) of less than 10 µM.

The molecule `COc1cc(O)c(C=O)c2oc(=O)c(CCC(=O)NCCN3CCOCC3)c(C)c12` [Example 196] registered a 50% effective concentration (EC50) of less than 10 µM. As for `COc1cc2c(C(F)(F)F)cc(=O)oc2c(C=O)c1O` [Example 197], the EC50 is less than 10 µM. The same measure for `COc1cc2c3c(c(=O)oc2c(C=O)c1O)CCC3` [Example 198]: less than 10 µM; for `COc1cc2c(C)c(C)c(=O)oc2c(C=O)c1O` [Example 199]: more than 10 µM. With `COc1cc2c(C)c(C(C)C)c(=O)oc2c(C=O)c1O` [Example 200] the figure was more than 10 µM; with `Cc1c(CCC(=O)NCCN2CCOCC2)c(=O)oc2c(C=O)c(O)ccc12` [Example 201], less than 10 µM; with `COCCNC(=O)CCc1c(C)c2cc(OCCN3CCOCC3)c(O)c(C=O)c2oc1=O` [Example 202], more than 10 µM.

For `Cc1c(C)c2cc(OCCN3CCOCC3)c(O)c(C=O)c2oc1=O` [Example 203], the EC50 is less than 10 µM. Consider `CCNC(=O)CCc1c(C)c2cc(OCCN3CCOCC3)c(O)c(C=O)c2oc1=O` [Example 204], for which the concentration for a half-maximal effect (EC50) was more than 10 µM. `COCCNC(=O)Cc1c(C)c2cc(OCCN3CCOCC3)c(O)c(C=O)c2oc1=O` [Example 205]: the EC50 came to 10 µM.
